Measurements: ChEMBL document CHEMBL4507316 (2021)
Calls of active or inactive are those of the source. The rule behind the calls is not given here.

Assays:
[1] = target: Heat shock protein beta-1 (Homo sapiens, UniProt P04792); test: Inhibition of HSP27 (Ser82) (Western blot)
[2] = target: Tyrosine-protein kinase ABL1 (Homo sapiens) (UniProt P00519); test: ABL1 wt ProQinase selectivity panel; conditions: Compound concentration 1.0 uM
[3] = target: Mitogen-activated protein kinase kinase kinase 5 (Homo sapiens) (UniProt Q99683); test: ASK1 ProQinase selectivity panel; conditions: Compound concentration 1.0 uM
[4] = target: Cytoplasmic tyrosine-protein kinase BMX (Homo sapiens) (UniProt P51813); test: BMX ProQinase selectivity panel; conditions: Compound concentration 1.0 uM
[5] = target: Serine/threonine-protein kinase BRSK1 (Homo sapiens) (UniProt Q8TDC3); test: BRSK1 ProQinase selectivity panel; conditions: Compound concentration 1.0 uM
[6] = target: Calcium/calmodulin-dependent protein kinase kinase 2 (Homo sapiens) (UniProt Q96RR4); test: CAMKK2 ProQinase selectivity panel; conditions: Compound concentration 1.0 uM
Sequence of Calcium/calmodulin-dependent protein kinase kinase 2 (Homo sapiens) (Q96RR4 2-588 limits assumed): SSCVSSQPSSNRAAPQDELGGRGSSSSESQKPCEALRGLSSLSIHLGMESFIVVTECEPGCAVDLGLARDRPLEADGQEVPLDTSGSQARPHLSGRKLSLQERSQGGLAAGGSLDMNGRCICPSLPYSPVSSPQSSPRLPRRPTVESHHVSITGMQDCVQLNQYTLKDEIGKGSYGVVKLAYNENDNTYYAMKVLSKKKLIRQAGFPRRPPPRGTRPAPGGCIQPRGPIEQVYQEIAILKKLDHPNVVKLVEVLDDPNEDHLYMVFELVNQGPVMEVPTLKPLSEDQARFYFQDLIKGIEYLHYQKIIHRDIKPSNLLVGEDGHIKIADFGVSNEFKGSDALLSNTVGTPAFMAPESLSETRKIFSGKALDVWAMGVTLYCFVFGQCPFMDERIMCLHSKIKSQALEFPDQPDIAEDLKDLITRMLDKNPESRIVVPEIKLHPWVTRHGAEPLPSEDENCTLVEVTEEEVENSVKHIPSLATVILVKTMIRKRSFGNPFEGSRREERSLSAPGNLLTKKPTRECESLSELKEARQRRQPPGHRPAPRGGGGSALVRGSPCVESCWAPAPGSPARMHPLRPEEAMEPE

[7] = target: Cyclin-dependent kinase 2/cyclin A (Homo sapiens) (UniProt P24941+P20248+P78396); test: CDK2/CycA ProQinase selectivity panel; assay type: protein-complex assay; conditions: Compound concentration 1.0 uM
[8] = target: Serine/threonine-protein kinase Chk1 (Homo sapiens) (UniProt O14757); test: CHK1 ProQinase selectivity panel; conditions: Compound concentration 1.0 uM
[9] = target: Serine/threonine-protein kinase Chk2 (Homo sapiens) (UniProt O96017); test: CHK2 ProQinase selectivity panel; conditions: Compound concentration 1.0 uM
[10] = target: Casein kinase I isoform gamma-3 (Homo sapiens) (UniProt Q9Y6M4); test: CK1-gamma3 ProQinase selectivity panel; conditions: Compound concentration 1.0 uM
[11] = target: Mitogen-activated protein kinase kinase kinase 8 (Homo sapiens) (UniProt P41279); test: COT ProQinase selectivity panel; conditions: Compound concentration 1.0 uM
[12] = target: Tyrosine-protein kinase CSK (Homo sapiens) (UniProt P41240); test: CSK ProQinase selectivity panel; conditions: Compound concentration 1.0 uM
Sequence of Tyrosine-protein kinase CSK (Homo sapiens) (P41240 2-450 limits assumed): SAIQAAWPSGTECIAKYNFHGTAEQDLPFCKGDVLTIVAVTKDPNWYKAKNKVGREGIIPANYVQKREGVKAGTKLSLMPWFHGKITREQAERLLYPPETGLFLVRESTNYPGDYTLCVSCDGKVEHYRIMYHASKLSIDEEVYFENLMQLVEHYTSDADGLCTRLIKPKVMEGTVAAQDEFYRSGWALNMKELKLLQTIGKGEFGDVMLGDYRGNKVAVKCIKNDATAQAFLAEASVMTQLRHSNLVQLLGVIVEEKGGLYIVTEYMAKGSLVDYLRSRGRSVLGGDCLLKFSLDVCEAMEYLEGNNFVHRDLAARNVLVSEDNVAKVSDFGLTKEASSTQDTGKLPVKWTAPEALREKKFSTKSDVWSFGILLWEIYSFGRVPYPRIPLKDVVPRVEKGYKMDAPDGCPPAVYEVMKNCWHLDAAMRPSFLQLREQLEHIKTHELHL

[13] = target: Death-associated protein kinase 2 (Homo sapiens) (UniProt Q9UIK4); test: DAPK2 ProQinase selectivity panel; conditions: Compound concentration 1.0 uM
Sequence of Death-associated protein kinase 2 (Homo sapiens) (Q9UIK4 whole entry, looked up): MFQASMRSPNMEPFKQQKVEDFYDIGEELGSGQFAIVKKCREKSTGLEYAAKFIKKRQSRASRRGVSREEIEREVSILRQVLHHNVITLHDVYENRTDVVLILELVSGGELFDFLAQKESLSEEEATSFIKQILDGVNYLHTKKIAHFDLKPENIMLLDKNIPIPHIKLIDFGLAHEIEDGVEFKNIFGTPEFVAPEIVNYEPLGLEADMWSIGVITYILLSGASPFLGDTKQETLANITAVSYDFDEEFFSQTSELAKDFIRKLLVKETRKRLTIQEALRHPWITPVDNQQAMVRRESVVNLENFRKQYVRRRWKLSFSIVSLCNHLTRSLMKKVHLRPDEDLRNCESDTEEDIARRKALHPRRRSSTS

[14] = target: Myotonin-protein kinase (Homo sapiens) (UniProt Q09013); test: DMPK ProQinase selectivity panel; conditions: Compound concentration 1.0 uM
[15] = target: Dual specificity tyrosine-phosphorylation-regulated kinase 1B (Homo sapiens) (UniProt Q9Y463); test: DYRK1B ProQinase selectivity panel; conditions: Compound concentration 1.0 uM
[16] = test system: Epidermal growth factor receptor (Homo sapiens), P00533 [UNDEFINED MUTATION]; test: EGF-R d746-750 ProQinase selectivity panel; conditions: Compound concentration 1.0 uM
[17] = test system: Epidermal growth factor receptor (Homo sapiens), P00533 [L858R,T790M]; test: EGF-R T790M/L858R ProQinase selectivity panel; conditions: Compound concentration 1.0 uM
[18] = target: Epidermal growth factor receptor (Homo sapiens) (UniProt P00533); test: EGF-R wt ProQinase selectivity panel; conditions: Compound concentration 1.0 uM
[19] = target: Ephrin type-A receptor 3 (Homo sapiens) (UniProt P29320); test: EPHA3 ProQinase selectivity panel; conditions: Compound concentration 1.0 uM
[20] = target: Ephrin type-B receptor 1 (Homo sapiens) (UniProt P54762); test: EPHB1 ProQinase selectivity panel; conditions: Compound concentration 1.0 uM
[21] = target: Tyrosine-protein kinase JAK2 (Homo sapiens) (UniProt O60674); test: JAK2 ProQinase selectivity panel; conditions: Compound concentration 1.0 uM
[22] = test system: Mast/stem cell growth factor receptor Kit (Homo sapiens), P10721 [T670I]; test: KIT T670I ProQinase selectivity panel; conditions: Compound concentration 1.0 uM
[23] = test system: Leucine-rich repeat serine/threonine-protein kinase 2 (Homo sapiens), Q5S007 [G2019S]; test: LRRK2 G2019S ProQinase selectivity panel; conditions: Compound concentration 1.0 uM
[24] = target: Mitogen-activated protein kinase kinase kinase 9 (Homo sapiens) (UniProt P80192); test: MAP3K9 ProQinase selectivity panel; conditions: Compound concentration 1.0 uM
[25] = target: Serine/threonine-protein kinase MARK1 (Homo sapiens) (UniProt Q9P0L2); test: MARK1 ProQinase selectivity panel; conditions: Compound concentration 1.0 uM
[26] = target: Serine/threonine-protein kinase MARK2 (Homo sapiens) (UniProt Q7KZI7); test: MARK2 ProQinase selectivity panel; conditions: Compound concentration 1.0 uM
[27] = target: Megakaryocyte-associated tyrosine-protein kinase (Homo sapiens) (UniProt P42679); test: MATK ProQinase selectivity panel; conditions: Compound concentration 1.0 uM
[28] = test system: Hepatocyte growth factor receptor (Homo sapiens), P08581 [Y1235D]; test: MET Y1235D ProQinase selectivity panel; conditions: Compound concentration 1.0 uM
[29] = target: Serine/threonine-protein kinase 24 (Homo sapiens) (UniProt Q9Y6E0); test: MST3 ProQinase selectivity panel; conditions: Compound concentration 1.0 uM
[30] = target: Serine/threonine-protein kinase Nek2 (Homo sapiens) (UniProt P51955); test: NEK2 ProQinase selectivity panel; conditions: Compound concentration 1.0 uM
Sequence of Serine/threonine-protein kinase Nek2 (Homo sapiens) (P51955 whole entry): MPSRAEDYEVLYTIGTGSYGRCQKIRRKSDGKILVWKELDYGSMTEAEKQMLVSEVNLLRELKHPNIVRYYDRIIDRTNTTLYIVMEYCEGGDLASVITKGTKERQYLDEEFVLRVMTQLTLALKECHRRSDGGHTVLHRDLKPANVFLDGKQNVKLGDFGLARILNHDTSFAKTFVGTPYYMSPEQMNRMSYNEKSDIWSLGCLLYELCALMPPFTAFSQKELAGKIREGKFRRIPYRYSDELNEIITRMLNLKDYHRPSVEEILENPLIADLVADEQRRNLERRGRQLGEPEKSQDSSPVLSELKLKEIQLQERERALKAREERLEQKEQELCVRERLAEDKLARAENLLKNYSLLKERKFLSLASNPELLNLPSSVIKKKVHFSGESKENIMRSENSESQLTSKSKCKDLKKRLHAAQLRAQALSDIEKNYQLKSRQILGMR

[31] = target: Serine/threonine-protein kinase Nek9 (Homo sapiens) (UniProt Q8TD19); test: NEK9 ProQinase selectivity panel; conditions: Compound concentration 1.0 uM
[32] = target: Mitogen-activated protein kinase 11 (Homo sapiens, UniProt Q15759); test: p38-beta ProQinase selectivity panel; conditions: Compound concentration 1.0 uM
[33] = target: Serine/threonine-protein kinase PAK 1 (Homo sapiens) (UniProt Q13153); test: PAK1 ProQinase selectivity panel; conditions: Compound concentration 1.0 uM
Sequence of Serine/threonine-protein kinase PAK 1 (Homo sapiens) (Q13153 whole entry): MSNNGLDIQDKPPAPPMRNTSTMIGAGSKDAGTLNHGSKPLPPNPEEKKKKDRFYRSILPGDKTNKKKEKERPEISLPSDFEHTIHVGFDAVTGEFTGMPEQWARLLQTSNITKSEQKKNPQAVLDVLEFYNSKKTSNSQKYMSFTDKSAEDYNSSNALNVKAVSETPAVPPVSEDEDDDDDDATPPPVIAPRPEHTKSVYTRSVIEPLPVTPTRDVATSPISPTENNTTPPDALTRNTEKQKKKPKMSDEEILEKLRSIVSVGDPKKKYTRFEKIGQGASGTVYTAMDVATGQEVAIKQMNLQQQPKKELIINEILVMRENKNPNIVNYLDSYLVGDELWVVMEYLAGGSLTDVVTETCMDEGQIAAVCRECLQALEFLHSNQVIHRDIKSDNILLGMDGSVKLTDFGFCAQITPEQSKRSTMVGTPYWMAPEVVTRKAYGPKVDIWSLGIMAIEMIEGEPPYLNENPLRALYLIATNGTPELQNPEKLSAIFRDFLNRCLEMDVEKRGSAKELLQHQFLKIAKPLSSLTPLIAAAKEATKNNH

[34] = target: Serine/threonine-protein kinase pim-2 (Homo sapiens) (UniProt Q9P1W9); test: PIM2 ProQinase selectivity panel; conditions: Compound concentration 1.0 uM
[35] = target: Serine/threonine-protein kinase PLK1 (Homo sapiens) (UniProt P53350); test: PLK1 ProQinase selectivity panel; conditions: Compound concentration 1.0 uM
[36] = target: Ribosomal protein S6 kinase alpha-5 (Homo sapiens) (UniProt O75582); test: RPS6KA5 ProQinase selectivity panel; conditions: Compound concentration 1.0 uM
[37] = target: Ribosomal protein S6 kinase alpha-6 (Homo sapiens) (UniProt Q9UK32); test: RPS6KA6 ProQinase selectivity panel; conditions: Compound concentration 1.0 uM
[38] = target: Serine/threonine-protein kinase PLK4 (Homo sapiens) (UniProt O00444); test: SAK ProQinase selectivity panel; conditions: Compound concentration 1.0 uM
[39] = target: SRSF protein kinase 2 (Homo sapiens) (UniProt P78362); test: SRPK2 ProQinase selectivity panel; conditions: Compound concentration 1.0 uM
[40] = target: STE20/SPS1-related proline-alanine-rich protein kinase (Homo sapiens) (UniProt Q9UEW8); test: STK39 ProQinase selectivity panel; conditions: Compound concentration 1.0 uM
[41] = target: Serine/threonine-protein kinase TBK1 (Homo sapiens) (UniProt Q9UHD2); test: TBK1 ProQinase selectivity panel; conditions: Compound concentration 1.0 uM
Sequence of Serine/threonine-protein kinase TBK1 (Homo sapiens) (Q9UHD2 whole entry): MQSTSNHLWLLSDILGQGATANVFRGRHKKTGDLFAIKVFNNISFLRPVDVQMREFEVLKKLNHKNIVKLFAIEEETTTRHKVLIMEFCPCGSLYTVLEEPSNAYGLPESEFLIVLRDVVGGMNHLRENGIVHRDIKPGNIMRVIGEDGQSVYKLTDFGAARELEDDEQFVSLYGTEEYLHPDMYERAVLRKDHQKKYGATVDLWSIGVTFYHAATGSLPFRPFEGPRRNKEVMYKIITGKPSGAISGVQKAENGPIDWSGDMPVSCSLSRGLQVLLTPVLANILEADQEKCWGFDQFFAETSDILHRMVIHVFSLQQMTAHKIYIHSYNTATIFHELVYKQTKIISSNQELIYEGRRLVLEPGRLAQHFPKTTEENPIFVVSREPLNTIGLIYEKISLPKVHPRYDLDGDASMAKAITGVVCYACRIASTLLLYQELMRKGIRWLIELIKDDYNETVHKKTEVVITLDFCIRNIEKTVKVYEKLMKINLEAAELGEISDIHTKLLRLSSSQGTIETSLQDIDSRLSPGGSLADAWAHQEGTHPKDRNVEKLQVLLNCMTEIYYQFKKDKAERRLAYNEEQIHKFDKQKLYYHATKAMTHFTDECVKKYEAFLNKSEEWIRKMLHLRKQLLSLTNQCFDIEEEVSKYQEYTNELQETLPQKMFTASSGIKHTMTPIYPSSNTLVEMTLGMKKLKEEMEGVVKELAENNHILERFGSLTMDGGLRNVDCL

[42] = target: Tyrosine-protein kinase Tec (Homo sapiens) (UniProt P42680); test: TEC ProQinase selectivity panel; conditions: Compound concentration 1.0 uM
Sequence of Tyrosine-protein kinase Tec (Homo sapiens) (P42680 whole entry): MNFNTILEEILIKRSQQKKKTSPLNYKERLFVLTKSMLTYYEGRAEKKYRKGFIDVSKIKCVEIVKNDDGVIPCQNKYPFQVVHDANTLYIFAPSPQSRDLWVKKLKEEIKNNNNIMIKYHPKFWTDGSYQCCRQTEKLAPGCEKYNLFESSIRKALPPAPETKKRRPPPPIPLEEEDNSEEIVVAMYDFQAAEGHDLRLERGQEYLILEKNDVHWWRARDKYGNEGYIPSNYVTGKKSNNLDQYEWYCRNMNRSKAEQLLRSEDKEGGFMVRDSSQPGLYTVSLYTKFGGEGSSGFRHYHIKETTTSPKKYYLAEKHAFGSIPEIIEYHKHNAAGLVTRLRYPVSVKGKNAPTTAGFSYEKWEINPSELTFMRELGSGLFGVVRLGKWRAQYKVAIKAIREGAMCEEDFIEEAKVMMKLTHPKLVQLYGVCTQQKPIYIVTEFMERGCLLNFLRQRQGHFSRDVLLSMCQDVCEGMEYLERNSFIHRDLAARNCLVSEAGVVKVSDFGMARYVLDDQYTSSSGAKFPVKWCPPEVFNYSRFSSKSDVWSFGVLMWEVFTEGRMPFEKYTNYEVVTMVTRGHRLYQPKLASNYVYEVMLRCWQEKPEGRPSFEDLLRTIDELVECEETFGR

[43] = target: Testis-specific serine/threonine-protein kinase 2 (Homo sapiens) (UniProt Q96PF2); test: TSK2 ProQinase selectivity panel; conditions: Compound concentration 1.0 uM
Sequence of Testis-specific serine/threonine-protein kinase 2 (Homo sapiens) (Q96PF2 whole entry): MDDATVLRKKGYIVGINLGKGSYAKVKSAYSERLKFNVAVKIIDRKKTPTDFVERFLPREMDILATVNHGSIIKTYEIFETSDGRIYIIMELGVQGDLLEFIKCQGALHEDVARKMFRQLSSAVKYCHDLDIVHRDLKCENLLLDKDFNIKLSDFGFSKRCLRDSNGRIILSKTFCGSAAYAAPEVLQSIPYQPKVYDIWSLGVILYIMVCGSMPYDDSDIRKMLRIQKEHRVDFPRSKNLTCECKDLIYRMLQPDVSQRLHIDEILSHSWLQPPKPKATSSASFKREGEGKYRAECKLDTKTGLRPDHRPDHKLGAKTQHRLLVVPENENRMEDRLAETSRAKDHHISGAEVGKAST

[44] = target: Dual specificity protein kinase TTK (Homo sapiens) (UniProt P33981); test: TTK ProQinase selectivity panel; conditions: Compound concentration 1.0 uM
[45] = target: Serine/threonine-protein kinase WNK2 (Homo sapiens) (UniProt Q9Y3S1); test: WNK2 ProQinase selectivity panel; conditions: Compound concentration 1.0 uM
[46] = target: Sodium-dependent dopamine transporter (Homo sapiens, UniProt Q01959); conditions: Compound concentration 10.0 uM
Sequence of Sodium-dependent dopamine transporter (Q01959 whole entry): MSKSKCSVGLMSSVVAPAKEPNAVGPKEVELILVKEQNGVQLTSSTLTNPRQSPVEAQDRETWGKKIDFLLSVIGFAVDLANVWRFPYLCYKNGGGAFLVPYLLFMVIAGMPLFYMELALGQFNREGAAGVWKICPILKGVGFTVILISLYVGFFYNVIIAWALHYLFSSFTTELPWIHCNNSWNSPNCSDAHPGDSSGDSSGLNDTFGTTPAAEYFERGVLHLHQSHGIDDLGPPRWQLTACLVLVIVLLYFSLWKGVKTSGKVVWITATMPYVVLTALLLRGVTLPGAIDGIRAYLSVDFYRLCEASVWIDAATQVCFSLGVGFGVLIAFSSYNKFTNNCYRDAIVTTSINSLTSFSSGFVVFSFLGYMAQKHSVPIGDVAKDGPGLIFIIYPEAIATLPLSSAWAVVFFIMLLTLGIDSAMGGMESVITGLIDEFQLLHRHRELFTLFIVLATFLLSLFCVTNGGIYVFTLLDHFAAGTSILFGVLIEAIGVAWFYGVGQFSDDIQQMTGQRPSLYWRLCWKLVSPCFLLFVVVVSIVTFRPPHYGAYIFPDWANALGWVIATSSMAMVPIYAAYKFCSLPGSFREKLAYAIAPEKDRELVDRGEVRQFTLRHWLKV

[47] = target: Alpha-2B adrenergic receptor (Homo sapiens) (UniProt P18089); conditions: Compound concentration 10.0 uM
[48] = target: Muscarinic acetylcholine receptor M2 (Homo sapiens) (UniProt P08172); conditions: Compound concentration 10.0 uM
[49] = target: Sigma non-opioid intracellular receptor 1 (Homo sapiens) (UniProt Q99720); conditions: Compound concentration 10.0 uM

Sequence of Heat shock protein beta-1 (P04792 whole entry): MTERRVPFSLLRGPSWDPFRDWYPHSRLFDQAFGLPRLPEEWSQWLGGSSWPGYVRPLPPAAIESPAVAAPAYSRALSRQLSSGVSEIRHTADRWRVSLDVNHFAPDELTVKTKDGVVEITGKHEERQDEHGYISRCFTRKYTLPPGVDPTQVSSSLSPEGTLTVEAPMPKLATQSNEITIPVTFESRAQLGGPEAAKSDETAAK

`O=C1c2ccc(Nc3ccc(F)cc3F)cc2CCc2ccc(OC[C@H](O)CO)cc21` [Skepinone-L] was tested. Which IC50 [1] did it give?
Its IC50 is 25 nM (active).

And the % Residual activity with Skepinone-L [2]?
The % Residual activity with Skepinone-L was 95%.

What about the % Residual activity with Skepinone-L [3] of the same molecule?
The % Residual activity with Skepinone-L was 103%.

What about the % Residual activity with Skepinone-L [4] of the same molecule?
Its % Residual activity with Skepinone-L is 108%.

What about the % Residual activity with Skepinone-L [5] of the same molecule?
Its % Residual activity with Skepinone-L is 94%.

What about the % Residual activity with Skepinone-L [6] of the same molecule?
Its % Residual activity with Skepinone-L is 97%.

What about the % Residual activity with Skepinone-L [7] of the same molecule?
The % Residual activity with Skepinone-L was 101%.

What about the % Residual activity with Skepinone-L [8] of the same molecule?
The % Residual activity with Skepinone-L was 94%.

What about the % Residual activity with Skepinone-L [9] of the same molecule?
Its % Residual activity with Skepinone-L is 89%.

What about the % Residual activity with Skepinone-L [10] of the same molecule?
Its % Residual activity with Skepinone-L is 95%.

And the % Residual activity with Skepinone-L [11]?
The % Residual activity with Skepinone-L was 91%.

And the % Residual activity with Skepinone-L [12]?
Its % Residual activity with Skepinone-L is 111%.

And the % Residual activity with Skepinone-L [13]?
Its % Residual activity with Skepinone-L is 88%.

And the % Residual activity with Skepinone-L [14]?
Its % Residual activity with Skepinone-L is 99%.

What about the % Residual activity with Skepinone-L [15] of the same molecule?
The % Residual activity with Skepinone-L was 102%.

And the % Residual activity with Skepinone-L [16]?
The % Residual activity with Skepinone-L was 100%.

And the % Residual activity with Skepinone-L [17]?
Its % Residual activity with Skepinone-L is 93%.

What about the % Residual activity with Skepinone-L [18] of the same molecule?
The % Residual activity with Skepinone-L was 94%.

What about the % Residual activity with Skepinone-L [19] of the same molecule?
Its % Residual activity with Skepinone-L is 107%.

And the % Residual activity with Skepinone-L [20]?
The % Residual activity with Skepinone-L was 116%.

What about the % Residual activity with Skepinone-L [21] of the same molecule?
Its % Residual activity with Skepinone-L is 90%.

And the % Residual activity with Skepinone-L [22]?
Its % Residual activity with Skepinone-L is 145%.

What about the % Residual activity with Skepinone-L [23] of the same molecule?
Its % Residual activity with Skepinone-L is 77%.

And the % Residual activity with Skepinone-L [24]?
The % Residual activity with Skepinone-L was 90%.

What about the % Residual activity with Skepinone-L [25] of the same molecule?
The % Residual activity with Skepinone-L was 88%.

And the % Residual activity with Skepinone-L [26]?
The % Residual activity with Skepinone-L was 105%.

What about the % Residual activity with Skepinone-L [27] of the same molecule?
Its % Residual activity with Skepinone-L is 111%.

What about the % Residual activity with Skepinone-L [28] of the same molecule?
Its % Residual activity with Skepinone-L is 114%.

What about the % Residual activity with Skepinone-L [29] of the same molecule?
The % Residual activity with Skepinone-L was 106%.

And the % Residual activity with Skepinone-L [30]?
Its % Residual activity with Skepinone-L is 85%.

What about the % Residual activity with Skepinone-L [31] of the same molecule?
The % Residual activity with Skepinone-L was 104%.

What about the % Residual activity with Skepinone-L [32] of the same molecule?
Its % Residual activity with Skepinone-L is 3%.

And the % Residual activity with Skepinone-L [33]?
The % Residual activity with Skepinone-L was 100%.

What about the % Residual activity with Skepinone-L [34] of the same molecule?
The % Residual activity with Skepinone-L was 97%.

And the % Residual activity with Skepinone-L [35]?
Its % Residual activity with Skepinone-L is 97%.

And the % Residual activity with Skepinone-L [36]?
The % Residual activity with Skepinone-L was 77%.

What about the % Residual activity with Skepinone-L [37] of the same molecule?
Its % Residual activity with Skepinone-L is 85%.

What about the % Residual activity with Skepinone-L [38] of the same molecule?
Its % Residual activity with Skepinone-L is 62%.

What about the % Residual activity with Skepinone-L [39] of the same molecule?
Its % Residual activity with Skepinone-L is 101%.

And the % Residual activity with Skepinone-L [40]?
The % Residual activity with Skepinone-L was 53%.

What about the % Residual activity with Skepinone-L [41] of the same molecule?
Its % Residual activity with Skepinone-L is 87%.

And the % Residual activity with Skepinone-L [42]?
Its % Residual activity with Skepinone-L is 115%.

What about the % Residual activity with Skepinone-L [43] of the same molecule?
The % Residual activity with Skepinone-L was 82%.

What about the % Residual activity with Skepinone-L [44] of the same molecule?
The % Residual activity with Skepinone-L was 83%.

And the % Residual activity with Skepinone-L [45]?
Its % Residual activity with Skepinone-L is 95%.

What about the inhibition [46] of the same molecule?
Its inhibition is 81.4%.

What about the inhibition [47] of the same molecule?
Its inhibition is 4.37%.

What about the inhibition [48] of the same molecule?
The inhibition was 40%.

And the inhibition [49]?
The inhibition was 48.5%.
